{
  "source": "patent US9284277B2",
  "about": "“Benzazepines as serotonin 5-HT2C receptor ligands and uses thereof” (ABT Holding Company, priority 2012, dated 2016)",
  "data": [
    {"target": "T1, human 5HT2c receptor (INI isoform) (Homo sapiens, UniProt P28335)", "T1 sequence (P28335 33-458)": "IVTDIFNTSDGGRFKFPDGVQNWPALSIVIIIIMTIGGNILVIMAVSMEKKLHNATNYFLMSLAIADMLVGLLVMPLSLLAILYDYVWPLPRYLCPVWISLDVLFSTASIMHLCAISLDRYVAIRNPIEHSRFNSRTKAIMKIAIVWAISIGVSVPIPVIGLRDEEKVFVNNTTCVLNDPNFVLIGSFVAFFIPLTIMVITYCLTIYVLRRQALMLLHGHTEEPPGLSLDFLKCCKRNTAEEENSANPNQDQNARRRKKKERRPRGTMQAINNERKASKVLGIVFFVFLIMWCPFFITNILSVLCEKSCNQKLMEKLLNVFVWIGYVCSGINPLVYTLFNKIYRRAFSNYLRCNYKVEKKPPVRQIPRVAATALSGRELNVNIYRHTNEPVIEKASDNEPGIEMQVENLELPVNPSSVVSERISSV", "assay": "Phosphotidyl Inositol Turnover Assay (IP-One Tb kit), agonist potency", "format": "cell-based", "conditions": "not given", "units": {"EC50": "µM"}, "values": [
      {"smiles": "CCC1CCc2c(F)cc3c(c21)CCNCC3", "note": "(stereo not shown) [Example 8, 1-Ethyl-4-fluoro-1,2,3,6,7,8,9,10-octahydro-8-aza-cyclohepta[e]indene]", "EC50": "< 0.01"},
      {"smiles": "CCC1CCc2ccc3c(c21)CCNCC3", "note": "(stereo not shown) [Example 3, 1-Ethyl-1,2,3,6,7,8,9,10-octahydro-8-aza-cyclohepta[e]indene]", "EC50": "< 0.01"},
      {"smiles": "CC1CCc2ccc3c(c21)CCNCC3", "note": "(stereo not shown) [Example 2, 1-Methyl-1,2,3,6,7,8,9,10-octahydro-8-aza-cyclohepta[e]indene]", "EC50": "< 0.01"},
      {"smiles": "CCOC1c2c(ccc3c2CCNCC3)CC1(F)F", "note": "(stereo not shown) [Example 41, 1-Ethoxy-2,2-difluoro-1,2,3,6,7,8,9,10-octahydro-8-aza-cyclohepta[e]indene]", "EC50": "< 0.01"},
      {"smiles": "c1cc2c(c3c1CCC3)CCNCC2", "note": "[Example 1, 1,2,3,6,7,8,9,10-Octahydro-8-aza-cyclohepta[e]indene]", "EC50": "< 0.01"},
      {"smiles": "CC1(C)CCc2ccc3c(c21)CCNCC3", "note": "[Example 13, 1,1-Dimethyl-1,2,3,6,7,8,9,10-octahydro-8-aza-cyclohepta[e]indene]", "EC50": "< 0.01"},
      {"smiles": "CC1(C)c2c(ccc3c2CCNCC3)CC1(F)F", "note": "[Example 34, 2,2-Difluoro-1,1-dimethyl-1,2,3,6,7,8,9,10-octahydro-8-aza-cyclohepta[e]indene]", "EC50": "< 0.01"},
      {"smiles": "CC1(C)CCc2c(-c3ccccc3)cc3c(c21)CCNCC3", "note": "[Example 35, 1,1-Dimethyl-4-phenyl-1,2,3,6,7,8,9,10-octahydro-8-aza-cyclohepta[e]indene]", "EC50": "< 1"},
      {"smiles": "CCC1CCc2c(Cl)cc3c(c21)CCNCC3", "note": "(stereo not shown) [Example 6, 4-Chloro-1-ethyl-1,2,3,6,7,8,9,10-octahydro-8-aza-cyclohepta[e]indene]", "EC50": "< 0.01"},
      {"smiles": "CCC1COc2ccc3c(c21)CCNCC3", "note": "(stereo not shown) [Example 36, 1-Ethyl-1,2,7,8,9,10-hexahydro-6H-3-oxa-8-aza-cyclohepta[e]indene]", "EC50": "< 0.01"},
      {"smiles": "FC1(F)Cc2ccc3c(c2C1)CCNCC3", "note": "[Example 42, 2,2-Difluoro-1,2,3,6,7,8,9,10-octahydro-8-aza-cyclohepta[e]indene]", "EC50": "< 0.01"},
      {"smiles": "CC1c2c(ccc3c2CCNCC3)CC1(F)F", "note": "(stereo not shown) [Example 32, 2,2-Difluoro-1-methyl-1,2,3,6,7,8,9,10-octahydro-8-aza-cyclohepta[e]indene]", "EC50": "< 0.01"},
      {"smiles": "CCC1CCc2c(I)cc3c(c21)CCNCC3", "note": "(stereo not shown) [Example 7, 1-Ethyl-4-iodo-1,2,3,6,7,8,9,10-octahydro-8-aza-cyclohepta[e]indene]", "EC50": "< 0.01"},
      {"smiles": "Clc1cc2c(c3c1CCC3c1ccccc1)CCNCC2", "note": "(stereo not shown) [Example 10, 4-Chloro-1-phenyl-1,2,3,6,7,8,9,10-octahydro-8-aza-cyclohepta[e]indene]", "EC50": "< 0.01"},
      {"smiles": "CCCC1CCc2ccc3c(c21)CCNCC3", "note": "(stereo not shown) [Example 5, 1-Propyl-1,2,3,6,7,8,9,10-octahydro-8-aza-cyclohepta[e]indene]", "EC50": "< 0.01"},
      {"smiles": "CCC1c2c(ccc3c2CCNCC3)CC1(F)F", "note": "(stereo not shown) [Example 31, 1-Ethyl-2,2-difluoro-1,2,3,6,7,8,9,10-octahydro-8-aza-cyclohepta[e]indene]", "EC50": "< 0.01"},
      {"smiles": "COC1c2c(ccc3c2CCNCC3)CC1(F)F", "note": "(stereo not shown) [Example 38, 2,2-Difluoro-1-methoxy-1,2,3,6,7,8,9,10-octahydro-8-aza-cyclohepta[e]indene]", "EC50": "< 0.01"},
      {"smiles": "CCC1CCOc2ccc3c(c21)CCNCC3", "note": "(stereo not shown) [Example 37, 1-Ethyl-2,3,8,9,10,11-hexahydro-1H,7H-4-oxa-9-aza-cyclohepta[a]naphthalene]", "EC50": "< 0.01"},
      {"smiles": "COC1CCc2ccc3c(c21)CCNCC3", "note": "(stereo not shown) [Example 43, 1-Methoxy-1,2,3,6,7,8,9,10-octahydro-8-aza-cyclohepta[e]indene]", "EC50": "< 0.01"}
    ]},
    {"target": "T1, human 5HT2c receptor (INI isoform)", "assay": "Phosphotidyl Inositol Turnover Assay (IP-One Tb kit), agonist potency", "format": "cell-based", "conditions": "5-HT2c PI turnover potency of the more active isomer (where applicable); HEK 293 EBNA cells expressing INI isoform of human 5HT2c receptor; read-out: Potency at 5HT2c (INI isoform)", "units": {"EC50": "µM"}, "values": [
      {"smiles": "Cc1cccc(C2c3c(ccc4c3CCNCC4)CC2(F)F)c1", "note": "(stereo not shown) [Example 16, 2,2-Difluoro-1-m-tolyl-1,2,3,6,7,8,9,10-octahydro-8-aza-cyclohepta[e]indene]", "EC50": "< 0.01"},
      {"smiles": "FC1(F)Cc2ccc3c(c2C1Cc1ccccc1)CCNCC3", "note": "(stereo not shown) [Example 33, 1-Benzyl-2,2-difluoro-1,2,3,6,7,8,9,10-octahydro-8-aza-cyclohepta[e]indene]", "EC50": "< 0.01"},
      {"smiles": "Fc1cccc(C2c3c(ccc4c3CCNCC4)CC2(F)F)c1", "note": "(stereo not shown) [Example 21, 2,2-Difluoro-1-(3-fluoro-phenyl)-1,2,3,6,7,8,9,10-octahydro-8-aza-cyclohepta[e]indene]", "EC50": "< 0.01"},
      {"smiles": "FC1(F)Cc2ccc3c(c2C1c1ccccc1)CCNCC3", "note": "(stereo not shown) [Example 14, 2,2-Difluoro-1-phenyl-1,2,3,6,7,8,9,10-octahydro-8-aza-cyclohepta[e]indene]", "EC50": "< 0.01"},
      {"smiles": "c1ccc(-c2coc3ccc4c(c23)CCNCC4)cc1", "note": "[Example 39, 1-Phenyl-7,8,9,10-tetrahydro-6H-3-oxa-8-aza-cyclohepta[e]indene]", "EC50": "< 0.01"},
      {"smiles": "FC(F)(F)Oc1cccc(C2c3c(ccc4c3CCNCC4)CC2(F)F)c1", "note": "(stereo not shown) [Example 19, 2,2-Difluoro-1-(3-trifluoromethoxy-phenyl)-1,2,3,6,7,8,9,10-octahydro-8-aza-cyclohepta[e]indene]", "EC50": "< 0.01"},
      {"smiles": "COc1ccccc1C1c2c(ccc3c2CCNCC3)CC1(F)F", "note": "(stereo not shown) [Example 25, 2,2-Difluoro-1-(2-methoxy-phenyl)-1,2,3,6,7,8,9,10-octahydro-8-aza-cyclohepta[e]indene]", "EC50": "< 0.01"},
      {"smiles": "Cc1ccccc1C1c2c(ccc3c2CCNCC3)CC1(F)F", "note": "(stereo not shown) [Example 15, 2,2-Difluoro-1-o-tolyl-1,2,3,6,7,8,9,10-octahydro-8-aza-cyclohepta[e]indene]", "EC50": "< 0.01"},
      {"smiles": "Fc1cc2c(c3c1CCC3c1cccnc1)CCNCC2", "note": "(stereo not shown) [Example 12, 4-Fluoro-1-pyridin-3-yl-1,2,3,6,7,8,9,10-octahydro-8-aza-cyclohepta[e]indene]", "EC50": "< 0.01"},
      {"smiles": "c1cc2c(c3c1CCNCC3)C(C1CC1)CC2", "note": "(stereo not shown) [Example 4, 1-Cyclopropyl-1,2,3,6,7,8,9,10-octahydro-8-aza-cyclohepta[e]indene]", "EC50": "< 0.01"},
      {"smiles": "c1ccc(C2CCc3ccc4c(c32)CCNCC4)cc1", "note": "(stereo not shown) [Example 9, 1-Phenyl-1,2,3,6,7,8,9,10-octahydro-8-aza-cyclohepta[e]indene]", "EC50": "< 0.01"},
      {"smiles": "FC1(F)Cc2ccc3c(c2C1c1ccc(Cl)cc1)CCNCC3", "note": "(stereo not shown) [Example 24, 1-(4-Chloro-phenyl)-2,2-difluoro-1,2,3,6,7,8,9,10-octahydro-8-aza-cyclohepta[e]indene]", "EC50": "< 0.01"},
      {"smiles": "COc1ccc(C2c3c(ccc4c3CCNCC4)CC2(F)F)cc1", "note": "(stereo not shown) [Example 27, 2,2-Difluoro-1-(4-methoxy-phenyl)-1,2,3,6,7,8,9,10-octahydro-8-aza-cyclohepta[e]indene]", "EC50": "< 0.1"},
      {"smiles": "FC1(F)Cc2ccc3c(c2C1c1ccncc1)CCNCC3", "note": "(stereo not shown) [Example 29, 2,2-Difluoro-1-pyridin-4-yl-1,2,3,6,7,8,9,10-octahydro-8-aza-cyclohepta[e]indene]", "EC50": "< 1"},
      {"smiles": "Fc1ccc(C2c3c(ccc4c3CCNCC4)CC2(F)F)cc1", "note": "(stereo not shown) [Example 20, 2,2-Difluoro-1-(4-fluoro-phenyl)-1,2,3,6,7,8,9,10-octahydro-8-aza-cyclohepta[e]indene]", "EC50": "< 0.01"},
      {"smiles": "Cc1ccc(C2c3c(ccc4c3CCNCC4)CC2(F)F)cc1", "note": "(stereo not shown) [Example 17, 2,2-Difluoro-1-p-tolyl-1,2,3,6,7,8,9,10-octahydro-8-aza-cyclohepta[e]indene]", "EC50": "< 0.1"},
      {"smiles": "c1cncc(C2CCc3ccc4c(c32)CCNCC4)c1", "note": "(stereo not shown) [Example 11, 1-Pyridin-3-yl-1,2,3,6,7,8,9,10-octahydro-8-aza-cyclohepta[e]indene]", "EC50": "< 0.01"},
      {"smiles": "FC1(F)Cc2ccc3c(c2C1c1cccnc1)CCNCC3", "note": "(stereo not shown) [Example 28, 2,2-Difluoro-1-pyridin-3-yl-1,2,3,6,7,8,9,10-octahydro-8-aza-cyclohepta[e]indene]", "EC50": "< 0.01"},
      {"smiles": "FC1(F)Cc2ccc3c(c2C1c1cccc(Cl)c1)CCNCC3", "note": "(stereo not shown) [Example 23, 1-(3-Chloro-phenyl)-2,2-difluoro-1,2,3,6,7,8,9,10-octahydro-8-aza-cyclohepta[e]indene]", "EC50": "< 0.01"},
      {"smiles": "FC1(F)Cc2c(Cl)cc3c(c2C1c1cccnc1)CCNCC3", "note": "(stereo not shown) [Example 30, 4-Chloro-2,2-difluoro-1-pyridin-3-yl-1,2,3,6,7,8,9,10-octahydro-8-aza-cyclohepta[e]indene]", "EC50": "< 0.01"},
      {"smiles": "FC1(F)Cc2ccc3c(c2C1C1CC1)CCNCC3", "note": "(stereo not shown) [Example 22, 1-Cyclopropyl-2,2-difluoro-1,2,3,6,7,8,9,10-octahydro-8-aza-cyclohepta[e]indene]", "EC50": "< 0.01"},
      {"smiles": "FC(F)(F)c1cccc(C2c3c(ccc4c3CCNCC4)CC2(F)F)c1", "note": "(stereo not shown) [Example 18, 2,2-Difluoro-1-(3-trifluoromethyl-phenyl)-1,2,3,6,7,8,9,10-octahydro-8-aza-cyclohepta[e]indene]", "EC50": "< 0.01"},
      {"smiles": "COc1cccc(C2c3c(ccc4c3CCNCC4)CC2(F)F)c1", "note": "(stereo not shown) [Example 26, 2,2-Difluoro-1-(3-methoxy-phenyl)-1,2,3,6,7,8,9,10-octahydro-8-aza-cyclohepta[e]indene]", "EC50": "< 0.01"},
      {"smiles": "c1csc(C2CCc3ccc4c(c32)CCNCC4)n1", "note": "(stereo not shown) [Example 40, 1-Thiazol-2-yl-1,2,3,6,7,8,9,10-octahydro-8-aza-cyclohepta[e]indene]", "EC50": "< 0.01"}
    ]}
  ]
}
